According to patent US7749698B2, “p53 wild-type as biomarker for the treatment with mTOR inhibitors in combination with a cytotoxic agent” (Novartis AG, priority 2004, dated 2010):

Key:
[1] = tested on: p53 (TP53) wild-type A549 cells; assay: p21 and Bax immunoblot, cisplatin with or without mTOR inhibitor; assay type: cell-based, human; conditions: for Bax protein expression: either agent alone or in combination
Method: (§1) p53 (TP53) wild-type A549 and MCF7 cells are seeded at a density of 0.3×10^6 and 0.4×10^6 cells/4 ml per 6 cm plates, respectively, and incubated for 24 hours at 37° C. and 5% CO2. Cells are incubated with suboptimal concentrations of cisplatin (e.g. 0.5 to 4 μg/ml) either in combination with 20 nM 40-O-(2-hydroxyethyl) rapamycin or with the vehicle-control DMSO for an additional 24 hours and 30 hours, respectively. Cell extracts corresponding to 30 μg total protein are resolved on 15% SDS-PAGE electrophoresis and immunoblot analysis is performed using mouse monoclonal antibodies raised against p21 (Oncogene Research Products, Clone EA10, catalogue #OP64). […] Strikingly, the presence of the mTOR inhibitor, e.g. 40-O-(2-hydroxyethyl) rapamycin, attenuates cisplatin-induced upregulation of p21 protein expression. In contrast, Bax protein expression, a p53-regulated pro-apoptotic protein, is unaffected by either agent alone or in combination. In this assay cytotoxic-induced p21 protein expression is inhibited by the presence of the mTOR inhibitor. This provides an explanation for the enhanced cell killing/apoptotic response observed with cisplatin and mTOR inhibitor combinations.

[2] = tested on: p53 (TP53) wild-type MCF7 cells; assay: as above; assay type: cell-based, human; conditions: for Bax protein expression: either agent alone or in combination
Method: as §1

PC3M = assay: YO-PRO cell death/cytotoxicity assay, cisplatin combination; assay type: cell-based, human; conditions: p53 mutated/deficient, 20 nM with cisplatin, 30 hours
Method: (§2) p53 (TP53) wild-type human lung adenocarcinoma A549 cells are seeded at a density of 5×10^3 cells/100 μl per well in 96-well plates and incubated for 24 hours at 37° C. and 5% CO2. Cells are incubated with suboptimal concentrations of cisplatin (e.g. 3 to 10 μg/ml) either in combination with 20 nM 40-O-(2-hydroxyethyl) rapamycin or with the vehicle-control DMSO for an additional 24 hours. The YO-PRO® assay is performed as above to determine cell death or cytotoxicity and, after cell lysis, the relative cell proliferation. […] In the latter case, incubation with compounds is for 30 hours.
(§3) This procedure is repeated however with the use of p53 (TP53) mutated/deficient tumor cell lines, e.g. PC3M (seeded at a density of 3×10^3 cells/100 μl) or DU145 (seeded at a density of 5×10^3 cells/100 μl:HTB-81; American Type Culture Collection). The incubation with compounds in this case is 22 hours for DU145 or 30 hours for PC3M.

DU145 = assay: as above; assay type: cell-based; conditions: DU145, p53 mutated/deficient; 20 nM with cisplatin, 22 hours
Method: as §2, §3

[3] = tested on: p53 (TP53) wild-type human lung adenocarcinoma A549 cells; assay: as above; assay type: cell-based
Method: as §2

[4] = tested on: p53 (TP53) wild-type human adenocarcinoma A549 (CCL-185) tumor cells; assay: YO-PRO cell death/cytotoxicity assay, gemcitabine combination; assay type: cell-based; conditions: 20 nM with gemcitabine 5 to 17.5 nM, 72 hours, p<0.05, ANOVA with Tukey test
Method: (§4) p53 (TP53) wild-type human adenocarcinoma A549 (CCL-185) tumor cells (American Type Culture Collection, Rockville, Md., USA) are seeded at a density of 2×10^3 cells/100 μl per well in 96-well plates and incubated for 24 hours at 37° C. and 5% CO2. Cells are incubated with suboptimal concentrations of gemcitabine (e.g. 5 to 17.5 nM) either in combination with 20 nM 40-O-(2-hydroxyethyl) rapamycin or with the vehicle-control DMSO for an additional 72 hours. YO-PRO dye (YO-PRO^R-1 iodide [491/509], cat #Y3603, Molecular Probes) is added to the cells and a Cytofluor II Fluorescence plate reader is used to determine cell death or cytotoxicity and, after cell lysis, the relative cell proliferation.

A549 cells [5] = assay: PARP cleavage immunoblot, gemcitabine combination; assay type: cell-based, human; conditions: 20 nM with gemcitabine 5 to 12.5 nM, 72 hours, compared to gemcitabine or the mTOR inhibitor alone
Method: A549 cells are seeded at a density of 0.1×10^6 cells/10 ml per 10 cm plates and incubated for 24 hours at 37° C. and 5% CO2. Cells are incubated with suboptimal concentrations of gemcitabine (e.g. 5 to 12.5 nM) either in combination with 20 nM 40-O-(2-hydroxyethyl) rapamycin or with the vehicle-control DMSO for an additional 72 hours. Cell extracts corresponding to 50 μg total protein are resolved by 8% SDS-PAGE electrophoresis and immunoblot analysis is performed using rabbit polyclonal antibodies raised against Poly (ADP-Ribose) Polymerase (PARP) (Cell Signalling Technology catalogue #9542). […] This confirms the above results that, in the p53 (TP53) wild-type A549 cells, the presence of the mTOR inhibitor results in higher levels of cell death at suboptimal gemcitabine concentrations.

A549 cells [6] = assay: PARP cleavage immunoblot, cisplatin combination; assay type: cell-based, human; conditions: 20 nM with cisplatin 0.5 to 4 μg/ml, 24 hours, compared to cisplatin or the mTOR inhibitor alone
Method: A549 cells are seeded at a density of 0.1×10^6 cells/10 ml per 10 cm plates and incubated for 24 hours at 37° C. and 5% CO2. Cells are incubated with suboptimal concentrations of cisplatin (e.g. 0.5 to 4 μg/ml) either in combination with 20 nM 40-O-(2-hydroxyethyl) rapamycin or with the vehicle-control DMSO for an additional 24 hours. Cell extracts corresponding to 50 μg total protein are resolved on 8% SDS-PAGE electrophoresis and immunoblot analysis is performed using rabbit polyclonal antibodies raised against Poly (ADP-Ribose) Polymerase (PARP) and p53. […] This confirms the above results that, in the p53 (TP53) wild-type A549 cells, the presence of the mTOR inhibitor results in higher levels of cell death at suboptimal cisplatin concentrations.

[7] = tested on: PC3M human prostate carcinoma cells; assay: YO-PRO cell death/cytotoxicity assay, gemcitabine combination; assay type: cell-based; conditions: p53 mutated/deficient, 20 nM with gemcitabine
Method: as §4
(§5) This procedure is repeated however with the use of p53 (TP53) mutated/deficient tumor cell lines, e.g. PC3M human prostate carcinoma cells (seeded at a density of 0.8×10^3 cells/100 μl) or MDA-MB231 human breast carcinoma cells (seeded at a density of 2×10^3 cells/100 μl; HTB-26; American Type Culture Collection).

[8] = tested on: MDA-MB231 human breast carcinoma cells; assay: as above; assay type: cell-based; conditions: MDA-MB231, p53 mutated/deficient; 20 nM with gemcitabine
Method: as §4, §5

[9] = tested on: p53 (TP53) wild-type A549 cells; assay: p53 siRNA transfection, cisplatin treatment, p53/p21/PARP immunoblot; assay type: cell-based, human; conditions: A549 untransfected or LacZ siRNA control transfected
Method: p53 (TP53) wild-type A549 cells are seeded at a density of 0.1×10^6 cells/5 ml per 6 cm plates and incubated for 24 hours at 37° C. and 5% CO2. Cells are left untransfected or transiently transfected with 100 nM siRNA targeting either human p53 (Accession number: NM000546; target sequence: 5′-GCA TCT TAT CCG AGT GGA A-3′) or LacZ (Accession number: M55068; target sequence: 5′-GCGGCTGCCGGAATTTACCTT-3′) control siRNA, using Oligofectamine (Invitrogen, Cat # 12252-011). After 30 hours incubation, cells are incubated with increasing concentrations of cisplatin (e.g. 0.5 to 6 μg/ml) for an additional 24 hours. Cell extracts corresponding to 30 μg (p21) and 50 μg (p53 and PARP) total protein are resolved on 15% (p21) and 10% (p53 and PARP) SDS-PAGE electrophoresis, and immunoblot analysis is performed using mouse monoclonal and rabbit polyclonal antibodies raised against p21 and p53/PARP, respectively. […] The same effects on p53 expression, p21 expression and PARP cleavage are also observed with two other siRNA's targeting human p53 (target sequences: 5′-GGA AGA CTC CAG TGG TAA T-3′ and 5′-GAT ATT GAA CAA TGG TTC A-3′).

[10] = tested on: p53 (TP53) wild-type A549 cells; assay: p21 siRNA transfection, cisplatin treatment, p21/PARP immunoblot; assay type: cell-based, human; conditions: A549 untransfected or LacZ siRNA control transfected; cisplatin 1 to 2 μg/ml, 24 hours
Method: p53 (TP53) wild-type A549 cells are seeded at a density of 0.1×10^6 cells/5 ml per 6 cm plates and incubated for 24 hours at 37° C. and 5% CO2. Cells are left untransfected or transiently transfected with 100 nM siRNA targeting either p21 (Accession number: NM000389; target sequence: 5′-GTG GAC AGC GAG CAG CTG A-3′) or LacZ (as above) control siRNA, using Oligofectamine (Invitrogen, Cat # 12252-011). After 30 hours incubation, cells are incubated with suboptimal concentrations of cisplatin (e.g. 1 to 2 μg/ml) for an additional 24 hours. Cell extracts corresponding to 30 μg (p21) and 50 μg (PARP) total protein are resolved on 15 and 10% SDS-PAGE electrophoresis, respectively, and immunoblot analysis is performed using mouse monoclonal and rabbit polyclonal antibodies raised against p21 and PARP, respectively.

[11] = cisplatin 0.5 to 6 μg/ml, 24 hours

CO[C@H]1C[C@@H]2CC[C@@H](C)[C@@](O)(O2)C(=O)C(=O)N2CCCC[C@H]2C(=O)O[C@H]([C@H](C)C[C@@H]2CC[C@@H](OCCO)[C@H](OC)C2)CC(=O)[C@H](C)/C=C(\C)[C@@H](O)[C@@H](OC)C(=O)[C@H](C)C[C@H](C)/C=C/C=C/C=C/1C [40-O-(2-hydroxyethyl) rapamycin]
cisplatin-induced upregulation of p21 protein expression ([1]; 20 nM with cisplatin 0.5 to 4 μg/ml, 24 hours): attenuates | Bax protein expression [1]: unaffected | cisplatin-induced upregulation of p21 protein expression ([2]; 20 nM with cisplatin 0.5 to 4 μg/ml, 30 hours): attenuates | Bax protein expression [2]: unaffected | potentiation of cell death (PC3M): No striking or consistent potentiation | potentiation of cell death (DU145): No striking or consistent potentiation | potentiation of the cell killing effect of suboptimal concentrations of cisplatin ([3]; 20 nM with cisplatin 3 to 10 μg/ml, 24 hours, p<0.05, ANOVA with Tukey test): statistically significant potentiation | interaction between RAD001 and cisplatin (two-way ANOVA) ([3]; p<0.001): highly significant | potentiation of the cell killing effect of suboptimal concentrations of gemcitabine [4]: statistically significant potentiation | PARP cleavage (a marker of apoptosis) at suboptimal gemcitabine concentrations (A549 cells [5]): increased PARP cleavage | PARP cleavage (a marker of apoptosis) at suboptimal cisplatin concentrations (A549 cells [6]): increased PARP cleavage | potentiation of cell death [7]: No striking or consistent potentiation | potentiation of cell death [8]: No striking or consistent potentiation

N.N.[Cl][Pt][Cl] [cisplatin]
p21 protein expression ([1]; cisplatin alone 0.5 to 4 μg/ml, 24 hours): induces increased p21 protein expression in a concentration-dependent manner | Bax protein expression [1]: unaffected | p21 protein expression ([2]; cisplatin alone 0.5 to 4 μg/ml, 30 hours): induces increased p21 protein expression in a concentration-dependent manner | Bax protein expression [2]: unaffected | PARP cleavage (a marker of apoptosis) ([9]; at higher cisplatin concentrations (2 to 6 μg/ml)): evidence of PARP cleavage | p21 protein expression [9, 11]: induces p53 and p21 protein expression in a concentration-dependent manner | p53 protein expression [9, 11]: induces p53 and p21 protein expression in a concentration-dependent manner | PARP cleavage (a marker of apoptosis) [10]: little evidence of PARP cleavage | p21 protein expression [10]: induces p21 protein expression in a concentration-dependent manner
